Reference: ChEMBL document CHEMBL1153912, “Antiproliferative effects of peracetylated naphthoxylosides” (Bioorg Med Chem Lett, 2009)
pEC50: −log10 of the molar value.

Experiments:
HFL1 = assay: Induction of glycosaminoglycan synthesis priming in human HFL1 cells assessed as ratio of fractions containing free glycosaminoglycan chains in drug to untreated control; type: cell-based; also: test concentration or dose not given here
[1] = Antiproliferative activity against human HFL1 cells after 96 hrs by crystal violet assay; type: cell-based; conditions: read-out: ED50
T-24 [2] = assay: Antiproliferative activity against human T24 cells after 96 hrs by crystal violet assay; type: functional; conditions: T-24, 96 h, read-out: ED50 (the source's name)
T-24 [3] = assay: Induction of glycosaminoglycan synthesis priming in human T24 cells assessed as ratio of fractions containing free glycosaminoglycan chains in drug to untreated control; type: functional; also: test concentration or dose not given here

Compound | Ratio (HFL1) | GI50 at 96 h [1] | pEC50 (T-24 [2]) | Ratio (T-24 [3])
CC(=O)Oc1cc2ccccc2cc1O[C@@H]1OC[C@@H](OC(C)=O)[C@H](OC(C)=O)[C@H]1OC(C)=O | 2.2 | 75 µM | 3.59 | 4.6
CC(=O)O[C@@H]1[C@@H](OC(C)=O)[C@H](Oc2cc3ccccc3cc2O[C@@H]2OC[C@@H](OC(C)=O)[C@H](OC(C)=O)[C@H]2OC(C)=O)OC[C@H]1OC(C)=O | 2.8 | 30 µM | 3.66 | 4.2
CC(=O)O[C@@H]1[C@@H](OC(C)=O)[C@H](Oc2cccc3c(O[C@@H]4OC[C@@H](OC(C)=O)[C@H](OC(C)=O)[C@H]4OC(C)=O)cccc23)OC[C@H]1OC(C)=O | 5.4 | 10 µM | 3.77 | 6.9
CC(=O)O[C@@H]1[C@@H](OC(C)=O)[C@H](Oc2ccc3ccccc3c2O[C@@H]2OC[C@@H](OC(C)=O)[C@H](OC(C)=O)[C@H]2OC(C)=O)OC[C@H]1OC(C)=O | 0.8 | 5 µM | 4.60 | 1.4
CC(=O)Oc1ccc2c(O[C@@H]3OC[C@@H](OC(C)=O)[C@H](OC(C)=O)[C@H]3OC(C)=O)cccc2c1 | 1.8 | 80 µM | 3.96 | 6.4
CC(=O)Oc1c(O[C@@H]2OC[C@@H](OC(C)=O)[C@H](OC(C)=O)[C@H]2OC(C)=O)ccc2ccccc12 | 1.8 | 110 µM | 3.60 | 7.1
CC(=O)Oc1ccc2cc(O[C@@H]3OC[C@@H](OC(C)=O)[C@H](OC(C)=O)[C@H]3OC(C)=O)ccc2c1 | 2.5 | 80 µM | 4.35 | 5.4
CC(=O)O[C@@H]1[C@@H](OC(C)=O)[C@H](Oc2cc(O[C@@H]3OC[C@@H](OC(C)=O)[C@H](OC(C)=O)[C@H]3OC(C)=O)c3ccccc3c2)OC[C@H]1OC(C)=O | 4.7 | 20 µM | 4.40 | 3.4
CC(=O)Oc1cccc2ccc(O[C@@H]3OC[C@@H](OC(C)=O)[C@H](OC(C)=O)[C@H]3OC(C)=O)cc12 | 2.1 | 65 µM | 4.12 | 4.8
CC(=O)O[C@@H]1[C@@H](OC(C)=O)[C@H](Oc2ccc(O[C@@H]3OC[C@@H](OC(C)=O)[C@H](OC(C)=O)[C@H]3OC(C)=O)c3ccccc23)OC[C@H]1OC(C)=O | 13.6 | 15 µM | 3.85 | 8
CC(=O)O[C@@H]1[C@@H](OC(C)=O)[C@H](Oc2ccc3ccc(O[C@@H]4OC[C@@H](OC(C)=O)[C@H](OC(C)=O)[C@H]4OC(C)=O)cc3c2)OC[C@H]1OC(C)=O | 6.4 | 65 µM | 4.22 | 5.4
CC(=O)O[C@@H]1[C@@H](OC(C)=O)[C@H](Oc2ccc3cccc(O[C@@H]4OC[C@@H](OC(C)=O)[C@H](OC(C)=O)[C@H]4OC(C)=O)c3c2)OC[C@H]1OC(C)=O | 11.1 | 135 µM | 3.96 | 0.5
CC(=O)Oc1ccc2ccc(O[C@@H]3OC[C@@H](OC(C)=O)[C@H](OC(C)=O)[C@H]3OC(C)=O)cc2c1 | 2.2 | 85 µM | 3.72 | 6.5
CC(=O)Oc1ccc2cccc(O[C@@H]3OC[C@@H](OC(C)=O)[C@H](OC(C)=O)[C@H]3OC(C)=O)c2c1 | 6.2 | 80 µM | 3.77 | 8.2
CC(=O)Oc1cccc2cc(O[C@@H]3OC[C@@H](OC(C)=O)[C@H](OC(C)=O)[C@H]3OC(C)=O)ccc12 | 1.3 | 100 µM | 4.19 | 6.9
CC(=O)Oc1cc(O[C@@H]2OC[C@@H](OC(C)=O)[C@H](OC(C)=O)[C@H]2OC(C)=O)cc2ccccc12 | 1 | 60 µM | 4.19 | 3.7
CC(=O)O[C@@H]1[C@@H](OC(C)=O)[C@H](Oc2cccc3cccc(O[C@@H]4OC[C@@H](OC(C)=O)[C@H](OC(C)=O)[C@H]4OC(C)=O)c23)OC[C@H]1OC(C)=O | 2.4 | 20 µM | 3.72 | 1.7
CC(=O)Oc1ccc2ccccc2c1O[C@@H]1OC[C@@H](OC(C)=O)[C@H](OC(C)=O)[C@H]1OC(C)=O | 0.6 | 65 µM | 3.77 | 0.5
CC(=O)Oc1ccc(O[C@@H]2OC[C@@H](OC(C)=O)[C@H](OC(C)=O)[C@H]2OC(C)=O)c2ccccc12 | 4.8 | 80 µM | 3.89 | 9
CC(=O)O[C@@H]1[C@@H](OC(C)=O)[C@H](Oc2ccc3cc(O[C@@H]4OC[C@@H](OC(C)=O)[C@H](OC(C)=O)[C@H]4OC(C)=O)ccc3c2)OC[C@H]1OC(C)=O | 15.5 | 55 µM | 3.49 | 8.2
CC(=O)Oc1cc(O[C@@H]2OC[C@@H](OC(C)=O)[C@H](OC(C)=O)[C@H]2OC(C)=O)c2ccccc2c1 | 2.2 | 20 µM | 4.60 | 4.5
CC(=O)Oc1cccc2cccc(O[C@@H]3OC[C@@H](OC(C)=O)[C@H](OC(C)=O)[C@H]3OC(C)=O)c12 | 0.8 | 110 µM | 3.69 | 2.4
CC(=O)Oc1cccc2c(O[C@@H]3OC[C@@H](OC(C)=O)[C@H](OC(C)=O)[C@H]3OC(C)=O)cccc12 | 2.7 | 90 µM | 3.77 | 6.1
CC(=O)O[C@@H]1[C@@H](OC(C)=O)[C@H](Oc2ccc3c(O[C@@H]4OC[C@@H](OC(C)=O)[C@H](OC(C)=O)[C@H]4OC(C)=O)cccc3c2)OC[C@H]1OC(C)=O | 12.7 | 160 µM | 4.00 | 8.8
